From US20070225351A1, “Methods and compositions for controlling body weight and appetite” (priority 2002, published 2007)

Test: in vivo
Type: in vivo
Procedure: Eighteen male and eighteen female beagle dogs were received from Ridglan Farms, Mt. Horeb, Wis. […] Each group consisted of four males and four females. All animals/sex/group were scheduled for the primary necropsy at the end of the 13-week treatment period.
The animals were observed twice daily for mortality and moribundity. Clinical examinations were performed daily at the time of dosing and approximately 1-2 and approximately 3 hours following dose administration. Detailed physical examinations were performed weekly. Clinical pathology evaluations (hematology, serum chemistry and urinalysis) were performed prior to the initiation of dose administration (study week-1) and prior to the scheduled necropsy (study week 13). Individual body weights were recorded weekly, beginning approximately two weeks prior to test article administration (study week-2). Mean body weights and mean body weight changes were calculated for each corresponding interval. Final body weights (fasted) were recorded prior to the scheduled necropsy. […] Gross lesions were also examined from the 2.0 and 6.0 mg/kg/day groups.

## Cl.Clc1ccc([C@@]23CNC[C@@H]2C3)cc1Cl (single isomer, unassigned) [(+)-1-(3,4-dichlorophenyl)-3-azabicyclo[3.1.0]hexane hydrochloride]
Female dogs, 20 MG/KG/DAY, WEEK 11 TO 12
  weekly food consumption, MEAN: 305. C/ANIMAL/DAY
Female dogs, 20 MG/KG/DAY, WEEK 12 TO 13
  weekly food consumption, MEAN: 249. C/ANIMAL/DAY
Male dogs, 20 mg/kg/day, end of 13-week study (body weight loss)
  mean total cumulative body weight change, lower than control: 120%
Male dogs, 20 mg/kg/day, first week of dose administration
  mean food consumption, lower than control: 33%
Male dogs, 20 mg/kg/day, generally, throughout the study
  food consumption, less than control values: at least 10%
Male dogs, 20 mg/kg/day, study week 13
  mean body weight, lower than control: 13%
Male dogs, 20 mg/kg/day, study weeks 6 to 13 except week 8 to 9, not statistically significant
  mean food consumption, lower than control: at least 10%
Male dogs, 2.0 MG/KG/DAY group, WEEK −1 TO 0 (before dosing)
  weekly food consumption, MEAN: 339. C/ANIMAL/DAY
Male dogs, 2.0 MG/KG/DAY, WEEK 0 TO 1
  weekly food consumption, MEAN: 320. C/ANIMAL/DAY
Male dogs, 2.0 MG/KG/DAY, WEEK 1 TO 2
  weekly food consumption, MEAN: 354. C/ANIMAL/DAY
Male dogs, 2.0 MG/KG/DAY, WEEK 2 TO 3
  weekly food consumption, MEAN: 373. C/ANIMAL/DAY
Male dogs, 2.0 MG/KG/DAY, WEEK 3 TO 4
  weekly food consumption, MEAN: 366. C/ANIMAL/DAY
Male dogs, 2.0 MG/KG/DAY, WEEK 4 TO 5
  weekly food consumption, MEAN: 369. C/ANIMAL/DAY
Male dogs, 2.0 MG/KG/DAY, WEEK 5 TO 6
  weekly food consumption, MEAN: 360. C/ANIMAL/DAY
Male dogs, 2.0 MG/KG/DAY, WEEK 6 TO 7
  weekly food consumption, MEAN: 393. C/ANIMAL/DAY
Male dogs, 2.0 MG/KG/DAY, WEEK 7 TO 8
  weekly food consumption, MEAN: 360. C/ANIMAL/DAY
Male dogs, 2.0 MG/KG/DAY, WEEK 8 TO 9
  weekly food consumption, MEAN: 388. C/ANIMAL/DAY
Male dogs, 2.0 MG/KG/DAY, WEEK 9 TO 10
  weekly food consumption, MEAN: 375. C/ANIMAL/DAY
Male dogs, 2.0 MG/KG/DAY, WEEK 10 TO 11
  weekly food consumption, MEAN: 389. C/ANIMAL/DAY
Male dogs, 2.0 MG/KG/DAY, WEEK 12 TO 13
  weekly food consumption, MEAN: 355. C/ANIMAL/DAY
Male dogs, 6.0 MG/KG/DAY group, WEEK −1 TO 0 (before dosing)
  weekly food consumption, MEAN: 331. C/ANIMAL/DAY
Male dogs, 6.0 MG/KG/DAY, WEEK 0 TO 1
  weekly food consumption, MEAN: 351. C/ANIMAL/DAY
Male dogs, 6.0 MG/KG/DAY, WEEK 1 TO 2
  weekly food consumption, MEAN: 370. C/ANIMAL/DAY
Male dogs, 6.0 MG/KG/DAY, WEEK 3 TO 4
  weekly food consumption, MEAN: 380. C/ANIMAL/DAY
Male dogs, 6.0 MG/KG/DAY, WEEK 4 TO 5
  weekly food consumption, MEAN: 350. C/ANIMAL/DAY
Male dogs, 6.0 MG/KG/DAY, WEEK 5 TO 6
  weekly food consumption, MEAN: 374. C/ANIMAL/DAY
Male dogs, 6.0 MG/KG/DAY, WEEK 6 TO 7
  weekly food consumption, MEAN: 381. C/ANIMAL/DAY
Male dogs, 6.0 MG/KG/DAY, WEEK 7 TO 8
  weekly food consumption, MEAN: 356. C/ANIMAL/DAY
Male dogs, 6.0 MG/KG/DAY, WEEK 8 TO 9
  weekly food consumption, MEAN: 368. C/ANIMAL/DAY
Male dogs, 6.0 MG/KG/DAY, WEEK 9 TO 10
  weekly food consumption, MEAN: 360. C/ANIMAL/DAY
Male dogs, 6.0 MG/KG/DAY, WEEK 10 TO 11
  weekly food consumption, MEAN: 367. C/ANIMAL/DAY
Male dogs, 6.0 MG/KG/DAY, WEEK 11 TO 12
  weekly food consumption, MEAN: 357. C/ANIMAL/DAY
Male dogs, 6.0 MG/KG/DAY, WEEK 12 TO 13
  weekly food consumption, MEAN: 331. C/ANIMAL/DAY
Male dogs, 20 MG/KG/DAY group, WEEK −1 TO 0 (before dosing)
  weekly food consumption, MEAN: 337. C/ANIMAL/DAY
Male dogs, 20 MG/KG/DAY, WEEK 0 TO 1
  weekly food consumption, MEAN: 228.* C/ANIMAL/DAY
Male dogs, 20 MG/KG/DAY, WEEK 1 TO 2
  weekly food consumption, MEAN: 319. C/ANIMAL/DAY
Male dogs, 20 MG/KG/DAY, WEEK 2 TO 3
  weekly food consumption, MEAN: 326. C/ANIMAL/DAY
Male dogs, 20 MG/KG/DAY, WEEK 3 TO 4
  weekly food consumption, MEAN: 357. C/ANIMAL/DAY
Male dogs, 20 MG/KG/DAY, WEEK 4 TO 5
  weekly food consumption, MEAN: 356. C/ANIMAL/DAY
Male dogs, 20 MG/KG/DAY, WEEK 5 TO 6
  weekly food consumption, MEAN: 331. C/ANIMAL/DAY
Male dogs, 20 MG/KG/DAY, WEEK 6 TO 7
  weekly food consumption, MEAN: 328. C/ANIMAL/DAY
Male dogs, 20 MG/KG/DAY, WEEK 7 TO 8
  weekly food consumption, MEAN: 325. C/ANIMAL/DAY
Male dogs, 20 MG/KG/DAY, WEEK 8 TO 9
  weekly food consumption, MEAN: 375. C/ANIMAL/DAY
Male dogs, 20 MG/KG/DAY, WEEK 9 TO 10
  weekly food consumption, MEAN: 322. C/ANIMAL/DAY
Male dogs, 20 MG/KG/DAY, WEEK 10 TO 11
  weekly food consumption, MEAN: 350. C/ANIMAL/DAY
Male dogs, 20 MG/KG/DAY, WEEK 11 TO 12
  weekly food consumption, MEAN: 305. C/ANIMAL/DAY
Male dogs, 20 MG/KG/DAY, WEEK 12 TO 13
  weekly food consumption, MEAN: 249. C/ANIMAL/DAY
